# Measured values from ChEMBL document CHEMBL3885881, “DrugMatrix”.
# Species: Rattus norvegicus
# Assay: DrugMatrix - Regimen: Daily Repeat
# Format: toxicity, organism-based, Sprague-Dawley
# Design: regimen Daily Repeat, gender Male, age 6-8 weeks
# Conditions: in vivo, po, route oral GAVAGE, vehicle 100 % SALINE
# [1] = 0 mg/kg, 72 h, tissue Plasma, dose level Control, time 3 day
# [2] = 0 mg/kg, 120 h, tissue Blood, dose level Control, time 5 day
# [3] = 0 mg/kg, 120 h, tissue Plasma, dose level Control, time 5 day
# [4] = 200 mg/kg, 72 h, tissue Blood, dose level Low, time 3 day
# [5] = 200 mg/kg, 72 h, tissue Plasma, dose level Low, time 3 day
# [6] = 200 mg/kg, 120 h, tissue Blood, dose level Low, time 5 day
# [7] = 200 mg/kg, 120 h, tissue Plasma, dose level Low, time 5 day
# [8] = 600 mg/kg, 72 h, tissue Blood, dose level High, time 3 day
# [9] = 600 mg/kg, 72 h, tissue Plasma, dose level High, time 3 day
# [10] = 600 mg/kg, 120 h, tissue Blood, dose level High, time 5 day
# [11] = 600 mg/kg, 120 h, tissue Plasma, dose level High, time 5 day
substance,measurement,setting,value
LEAD (II) ACETATE,ALANINE AMINOTRANSFERASE,[1],50.67 u/L
same,ALKALINE PHOSPHATASE,[1],356.33 u/L
same,ASPARTATE AMINOTRANSFERASE,[1],78.17 u/L
same,BLOOD UREA NITROGEN,[1],14.17 mg/dL
same,CARBON DIOXIDE,[1],31.33 mmol/L
same,CHLORIDE,[1],98.5 MEQ/L
same,CHOLESTEROL,[1],76.5 mg/dL
same,CREATINE PHOSPHOKINASE,[1],248.33 u/L
same,CREATININE,[1],0.2 mg/dL
same,LACTATE DEHYDROGENASE,[1],107 u/L
same,LIPASE,[1],9.83 u/L
same,PHOSPHORUS,[1],12.8 mg/dL
same,POTASSIUM,[1],6.75 MEQ/L
same,TOTAL BILIRUBIN,[1],0.18 mg/dL
same,TOTAL PROTEIN,[1],5.98 G/DL
same,URIC ACID,[1],1.42 mg/dL
same,ABSOLUTE BASOPHIL,[2],0 CELLS/uL
same,ABSOLUTE EOSINOPHIL,[2],0 CELLS/uL
same,ABSOLUTE LYMPHOCYTE,[2],8681.17 CELLS/uL
same,ABSOLUTE MONOCYTE,[2],79.83 CELLS/uL
same,ABSOLUTE SEGMENTED NEUTROPHIL,[2],689 CELLS/uL
same,BASOPHIL,[2],0%
same,EOSINOPHIL,[2],0%
same,ERYTHROCYTE COUNT,[2],5.49 x10E6/uL
same,HEMATOCRIT,[2],33.55%
same,HEMOGLOBIN,[2],13.1 G/DL
same,LEUKOCYTE COUNT,[2],9.45 x10E3/uL
same,LYMPHOCYTE,[2],92.33%
same,MEAN CORPUSCULAR HEMOGLOBIN,[2],23.92 pg
same,MEAN CORPUSCULAR HEMOGLOBIN CONCENTRATION,[2],39.07 G/DL
same,MONOCYTE,[2],0.67%
same,NEUTROPHIL,[2],7%
same,NUCLEATED RED BLOOD CELLS,[2],0.17 /100WBC
same,PLATELET COUNT,[2],1001.17 x10E3/uL
same,ALANINE AMINOTRANSFERASE,[3],49.33 u/L
same,ALKALINE PHOSPHATASE,[3],300.33 u/L
same,ASPARTATE AMINOTRANSFERASE,[3],83.5 u/L
same,BLOOD UREA NITROGEN,[3],16 mg/dL
same,CHLORIDE,[3],100.5 MEQ/L
same,CHOLESTEROL,[3],74.33 mg/dL
same,CREATINE PHOSPHOKINASE,[3],489.67 u/L
same,CREATININE,[3],0.35 mg/dL
same,GLUCOSE,[3],151 mg/dL
same,LACTATE DEHYDROGENASE,[3],133.67 u/L
same,LIPASE,[3],11.17 u/L
same,PHOSPHORUS,[3],10.88 mg/dL
same,POTASSIUM,[3],5.5 MEQ/L
same,SODIUM,[3],145.7 MEQ/L
same,TOTAL BILIRUBIN,[3],0.2 mg/dL
same,TOTAL PROTEIN,[3],6.05 G/DL
same,URIC ACID,[3],0.68 mg/dL
same,ABSOLUTE BASOPHIL,[4],0 CELLS/uL
same,ABSOLUTE EOSINOPHIL,[4],42 CELLS/uL
same,ABSOLUTE LYMPHOCYTE,[4],7845 CELLS/uL
same,ABSOLUTE MONOCYTE,[4],45.67 CELLS/uL
same,ABSOLUTE SEGMENTED NEUTROPHIL,[4],634 CELLS/uL
same,BASOPHIL,[4],0%
same,EOSINOPHIL,[4],0.67%
same,ERYTHROCYTE COUNT,[4],5.3 x10E6/uL
same,HEMATOCRIT,[4],32.4%
same,HEMOGLOBIN,[4],12.73 G/DL
same,LEUKOCYTE COUNT,[4],8.57 x10E3/uL
same,LYMPHOCYTE,[4],91.67%
same,MEAN CORPUSCULAR HEMOGLOBIN,[4],24.1 pg
same,MONOCYTE,[4],0.67%
same,NEUTROPHIL,[4],7%
same,NUCLEATED RED BLOOD CELLS,[4],0.67 /100WBC
same,PLATELET COUNT,[4],1060.33 x10E3/uL
same,ALANINE AMINOTRANSFERASE,[5],44.33 u/L
same,ALBUMIN,[5],4.1 G/DL
same,ALKALINE PHOSPHATASE,[5],338.33 u/L
same,ASPARTATE AMINOTRANSFERASE,[5],80.67 u/L
same,BLOOD UREA NITROGEN,[5],14 mg/dL
same,CHLORIDE,[5],100 MEQ/L
same,CHOLESTEROL,[5],80 mg/dL
same,CREATINE PHOSPHOKINASE,[5],412 u/L
same,CREATININE,[5],0.48 mg/dL
same,GLUCOSE,[5],189.33 mg/dL
same,LACTATE DEHYDROGENASE,[5],140.33 u/L
same,LIPASE,[5],11.67 u/L
same,PHOSPHORUS,[5],13.53 mg/dL
same,POTASSIUM,[5],5.59 MEQ/L
same,TOTAL BILIRUBIN,[5],0.13 mg/dL
same,TOTAL PROTEIN,[5],5.93 G/DL
same,URIC ACID,[5],1.37 mg/dL
same,ABSOLUTE BASOPHIL,[6],0 CELLS/uL
same,ABSOLUTE EOSINOPHIL,[6],25 CELLS/uL
same,ABSOLUTE MONOCYTE,[6],82.67 CELLS/uL
same,ABSOLUTE SEGMENTED NEUTROPHIL,[6],668 CELLS/uL
same,BASOPHIL,[6],0%
same,EOSINOPHIL,[6],0.33%
same,ERYTHROCYTE COUNT,[6],5.28 x10E6/uL
same,HEMATOCRIT,[6],32.07%
same,HEMOGLOBIN,[6],12.83 G/DL
same,LEUKOCYTE COUNT,[6],11.1 x10E3/uL
same,LYMPHOCYTE,[6],92.67%
same,MEAN CORPUSCULAR HEMOGLOBIN,[6],24.3 pg
same,MEAN CORPUSCULAR HEMOGLOBIN CONCENTRATION,[6],40.03 G/DL
same,MONOCYTE,[6],0.67%
same,NEUTROPHIL,[6],6.33%
same,NUCLEATED RED BLOOD CELLS,[6],0.67 /100WBC
same,PLATELET COUNT,[6],1339.67 x10E3/uL
same,ALANINE AMINOTRANSFERASE,[7],57.33 u/L
same,ALBUMIN,[7],3.9 G/DL
same,ALKALINE PHOSPHATASE,[7],297 u/L
same,ASPARTATE AMINOTRANSFERASE,[7],91 u/L
same,BLOOD UREA NITROGEN,[7],14.33 mg/dL
same,CARBON DIOXIDE,[7],30 mmol/L
same,CHLORIDE,[7],99.33 MEQ/L
same,CHOLESTEROL,[7],71.33 mg/dL
same,CREATINE PHOSPHOKINASE,[7],225 u/L
same,CREATININE,[7],0.46 mg/dL
same,LACTATE DEHYDROGENASE,[7],122 u/L
same,LIPASE,[7],9 u/L
same,PHOSPHORUS,[7],10.9 mg/dL
same,POTASSIUM,[7],5.95 MEQ/L
same,TOTAL BILIRUBIN,[7],0.13 mg/dL
same,TOTAL PROTEIN,[7],6.23 G/DL
same,URIC ACID,[7],0.7 mg/dL
same,ABSOLUTE BASOPHIL,[8],0 CELLS/uL
same,ABSOLUTE EOSINOPHIL,[8],32.67 CELLS/uL
same,ABSOLUTE LYMPHOCYTE,[8],9967.33 CELLS/uL
same,ABSOLUTE MONOCYTE,[8],129.67 CELLS/uL
same,ABSOLUTE SEGMENTED NEUTROPHIL,[8],570.33 CELLS/uL
same,BASOPHIL,[8],0%
same,EOSINOPHIL,[8],0.33%
same,ERYTHROCYTE COUNT,[8],5.69 x10E6/uL
same,HEMATOCRIT,[8],34.9%
same,HEMOGLOBIN,[8],13.73 G/DL
same,LEUKOCYTE COUNT,[8],10.7 x10E3/uL
same,LYMPHOCYTE,[8],92.67%
same,MEAN CORPUSCULAR HEMOGLOBIN,[8],24.13 pg
same,NEUTROPHIL,[8],5.67%
same,NUCLEATED RED BLOOD CELLS,[8],0.33 /100WBC
same,PLATELET COUNT,[8],964.67 x10E3/uL
same,ALANINE AMINOTRANSFERASE,[9],56.67 u/L
same,ALKALINE PHOSPHATASE,[9],262 u/L
same,ASPARTATE AMINOTRANSFERASE,[9],84.33 u/L
same,BLOOD UREA NITROGEN,[9],13.33 mg/dL
same,CHLORIDE,[9],99 MEQ/L
same,CREATINE PHOSPHOKINASE,[9],319.33 u/L
same,CREATININE,[9],0.55 mg/dL
same,LACTATE DEHYDROGENASE,[9],97 u/L
same,LIPASE,[9],14.33 u/L
same,PHOSPHORUS,[9],11.57 mg/dL
same,POTASSIUM,[9],5.33 MEQ/L
same,TOTAL BILIRUBIN,[9],0.1 mg/dL
same,TOTAL PROTEIN,[9],5.83 G/DL
same,URIC ACID,[9],0.87 mg/dL
same,ABSOLUTE BASOPHIL,[10],0 CELLS/uL
same,ABSOLUTE EOSINOPHIL,[10],20.67 CELLS/uL
same,ABSOLUTE LYMPHOCYTE,[10],6898.67 CELLS/uL
same,ABSOLUTE MONOCYTE,[10],79.33 CELLS/uL
same,ABSOLUTE SEGMENTED NEUTROPHIL,[10],568 CELLS/uL
same,BASOPHIL,[10],0%
same,EOSINOPHIL,[10],0.33%
same,ERYTHROCYTE COUNT,[10],5.67 x10E6/uL
same,HEMATOCRIT,[10],33.33%
same,HEMOGLOBIN,[10],12.97 G/DL
same,LEUKOCYTE COUNT,[10],7.57 x10E3/uL
same,LYMPHOCYTE,[10],90.67%
same,MEAN CORPUSCULAR HEMOGLOBIN,[10],22.87 pg
same,MEAN CORPUSCULAR HEMOGLOBIN CONCENTRATION,[10],38.93 G/DL
same,MEAN CORPUSCULAR VOLUME,[10],58.77 fL
same,MONOCYTE,[10],1%
same,NEUTROPHIL,[10],8%
same,NUCLEATED RED BLOOD CELLS,[10],0 /100WBC
same,PLATELET COUNT,[10],1398 x10E3/uL
same,ALANINE AMINOTRANSFERASE,[11],48 u/L
same,ALBUMIN,[11],4 G/DL
same,ALKALINE PHOSPHATASE,[11],286.67 u/L
same,ASPARTATE AMINOTRANSFERASE,[11],92.67 u/L
same,BLOOD UREA NITROGEN,[11],13.33 mg/dL
same,CHOLESTEROL,[11],76 mg/dL
same,CREATINE PHOSPHOKINASE,[11],510.67 u/L
same,CREATININE,[11],0.28 mg/dL
same,GLUCOSE,[11],157.67 mg/dL
same,LACTATE DEHYDROGENASE,[11],162.67 u/L
same,LIPASE,[11],11 u/L
same,POTASSIUM,[11],4.79 MEQ/L
same,TOTAL BILIRUBIN,[11],0.13 mg/dL
same,TOTAL PROTEIN,[11],5.6 G/DL
same,URIC ACID,[11],0.33 mg/dL
